Earlier results in patent US9084838B2, “Feminine care absorbent article for use in warm climates” (Kimberly-Clark Worldwide, Inc., priority 2011, dated 2015).

Settings: at 25° C.

For `O=C(O)CC(O)(CC(=O)O)C(=O)O` [citric acid], the pKa2 is given as 4.76 and the pKa3 is given as 6.40.
